Among the data in patent US11299501B2 (BRISTOL-MYERS SQUIBB COMPANY, priority 2017, dated 2022) are IC50 values, retold here.

What all share (format): cell-based
One assay addresses T1, human TLR7 (Homo sapiens, UniProt Q9NYK1).
T1 construct: host or cells: HEK-Blue cells
T1 sequence (Q9NYK1 27-1049): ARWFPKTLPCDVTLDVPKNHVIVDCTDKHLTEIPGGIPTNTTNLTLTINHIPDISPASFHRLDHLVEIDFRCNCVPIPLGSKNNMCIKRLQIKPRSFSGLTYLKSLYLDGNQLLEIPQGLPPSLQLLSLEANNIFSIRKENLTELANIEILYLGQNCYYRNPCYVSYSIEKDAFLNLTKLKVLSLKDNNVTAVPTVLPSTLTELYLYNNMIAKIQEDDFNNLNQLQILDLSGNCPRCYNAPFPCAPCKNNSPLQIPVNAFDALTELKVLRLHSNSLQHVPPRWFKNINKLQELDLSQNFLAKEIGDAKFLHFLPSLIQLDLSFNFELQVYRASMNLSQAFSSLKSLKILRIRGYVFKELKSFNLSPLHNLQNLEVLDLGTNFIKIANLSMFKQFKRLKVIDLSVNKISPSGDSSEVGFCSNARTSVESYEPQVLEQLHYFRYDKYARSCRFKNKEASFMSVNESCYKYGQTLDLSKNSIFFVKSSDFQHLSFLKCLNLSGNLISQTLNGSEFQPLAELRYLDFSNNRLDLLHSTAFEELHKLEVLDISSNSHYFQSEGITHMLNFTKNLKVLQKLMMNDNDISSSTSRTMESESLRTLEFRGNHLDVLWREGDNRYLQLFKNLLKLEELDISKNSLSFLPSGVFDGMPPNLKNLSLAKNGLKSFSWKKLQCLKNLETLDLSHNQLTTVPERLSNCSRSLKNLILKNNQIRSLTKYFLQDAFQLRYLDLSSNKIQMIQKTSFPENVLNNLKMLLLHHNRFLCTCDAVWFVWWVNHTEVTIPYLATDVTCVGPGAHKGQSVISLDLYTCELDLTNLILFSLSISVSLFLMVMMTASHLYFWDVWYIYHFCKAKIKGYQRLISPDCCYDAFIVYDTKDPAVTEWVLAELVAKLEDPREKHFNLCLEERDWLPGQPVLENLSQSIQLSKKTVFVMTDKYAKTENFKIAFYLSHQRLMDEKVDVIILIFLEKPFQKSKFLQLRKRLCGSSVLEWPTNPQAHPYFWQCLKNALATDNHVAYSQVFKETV
Kind of assay: TLR7 inhibition reporter assay (HEK-Blue SEAP). Conditions: cells overexpressing human TLR7, SEAP reporter, stimulated with gardiquimod 7.5 μM, 22 hour incubation. The protocol: (§1) TLR7/8/9 Inhibition Reporter Assays
(§2) […] (Invivogen) overexpressing human TLR7, TLR8 or TLR9 receptors were used for screening inhibitors of these receptors using an inducible SEAP (secreted embryonic alkaline phosphatase) reporter gene under the control of the IFN-β minimal promoter fused to five NF-κB and AP-1-binding sites. Briefly, cells are seeded into Greiner 384 well plates (15000 cells per well for TLR7, 20,000 for TLR8 and 25,000 for TLR9) and then treated with test compounds in DMSO to yield a final dose response concentration range of 0.05 nM-50 μM. After a 30 minute compound pre-treatment at room temperature, the cells are then stimulated with a TLR7 ligand (gardiquimod at a final concentration of 7.5 μM). TLR8 ligand (R848 at a final concentration of 15.9 μM) or TLR9 ligand (ODN2006 at a final concentration of 5 nM) to activate NF-κB and AP-1 which induce the production of SEAP. After a 22 hour incubation at 37° C., 5% CO2, SEAP levels are determined with the addition of HEK-Blue™ Detection reagent (Invivogen), a cell culture medium that allows for detection of SEAP, according to manufacturer's specifications. The percent inhibition is determined as the % reduction in the HEK-Blue signal present in wells treated with agonist plus DMSO alone compared to wells treated with a known inhibitor.

The target of the next assay is T2, human TLR9 (Homo sapiens, UniProt Q9NR96).
T2 construct: host or cells: HEK-Blue cells
T2 sequence (Q9NR96 26-1032): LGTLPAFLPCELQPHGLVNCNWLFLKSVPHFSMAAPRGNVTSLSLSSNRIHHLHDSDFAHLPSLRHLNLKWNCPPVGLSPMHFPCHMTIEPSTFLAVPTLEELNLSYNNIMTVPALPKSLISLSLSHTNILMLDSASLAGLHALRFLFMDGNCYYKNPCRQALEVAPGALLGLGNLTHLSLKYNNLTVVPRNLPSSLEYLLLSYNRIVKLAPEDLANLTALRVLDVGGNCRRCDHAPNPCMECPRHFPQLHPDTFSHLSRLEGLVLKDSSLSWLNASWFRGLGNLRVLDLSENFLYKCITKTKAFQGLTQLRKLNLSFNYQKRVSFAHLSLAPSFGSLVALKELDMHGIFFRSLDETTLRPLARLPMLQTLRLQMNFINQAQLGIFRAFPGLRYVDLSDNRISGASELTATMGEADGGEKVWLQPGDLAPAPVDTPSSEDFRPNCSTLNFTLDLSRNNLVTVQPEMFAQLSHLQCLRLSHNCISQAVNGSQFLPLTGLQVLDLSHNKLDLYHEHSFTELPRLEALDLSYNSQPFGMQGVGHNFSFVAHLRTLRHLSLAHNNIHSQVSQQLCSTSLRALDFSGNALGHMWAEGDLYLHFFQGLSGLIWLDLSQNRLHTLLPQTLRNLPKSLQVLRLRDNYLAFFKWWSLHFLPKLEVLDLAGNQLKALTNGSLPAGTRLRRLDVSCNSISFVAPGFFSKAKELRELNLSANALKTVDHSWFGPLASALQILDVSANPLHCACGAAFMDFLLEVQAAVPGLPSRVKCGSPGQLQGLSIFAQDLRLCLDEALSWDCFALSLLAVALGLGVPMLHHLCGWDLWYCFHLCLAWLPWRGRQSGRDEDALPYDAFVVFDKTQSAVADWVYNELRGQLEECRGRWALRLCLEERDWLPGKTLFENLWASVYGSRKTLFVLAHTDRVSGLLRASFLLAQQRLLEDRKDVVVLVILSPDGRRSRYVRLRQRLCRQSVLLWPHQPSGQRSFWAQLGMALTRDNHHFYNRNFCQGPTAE
Kind of assay: TLR9 inhibition reporter assay (HEK-Blue SEAP). Conditions: cells overexpressing human TLR9, SEAP reporter, stimulated with ODN2006 5 nM, 22 hour incubation. The protocol: as §1, §2

The next assay has as its target T3, human TLR8 (Homo sapiens, UniProt Q9NR97).
T3 construct: host or cells: HEK-Blue cells
T3 sequence (Q9NR97 27-1041): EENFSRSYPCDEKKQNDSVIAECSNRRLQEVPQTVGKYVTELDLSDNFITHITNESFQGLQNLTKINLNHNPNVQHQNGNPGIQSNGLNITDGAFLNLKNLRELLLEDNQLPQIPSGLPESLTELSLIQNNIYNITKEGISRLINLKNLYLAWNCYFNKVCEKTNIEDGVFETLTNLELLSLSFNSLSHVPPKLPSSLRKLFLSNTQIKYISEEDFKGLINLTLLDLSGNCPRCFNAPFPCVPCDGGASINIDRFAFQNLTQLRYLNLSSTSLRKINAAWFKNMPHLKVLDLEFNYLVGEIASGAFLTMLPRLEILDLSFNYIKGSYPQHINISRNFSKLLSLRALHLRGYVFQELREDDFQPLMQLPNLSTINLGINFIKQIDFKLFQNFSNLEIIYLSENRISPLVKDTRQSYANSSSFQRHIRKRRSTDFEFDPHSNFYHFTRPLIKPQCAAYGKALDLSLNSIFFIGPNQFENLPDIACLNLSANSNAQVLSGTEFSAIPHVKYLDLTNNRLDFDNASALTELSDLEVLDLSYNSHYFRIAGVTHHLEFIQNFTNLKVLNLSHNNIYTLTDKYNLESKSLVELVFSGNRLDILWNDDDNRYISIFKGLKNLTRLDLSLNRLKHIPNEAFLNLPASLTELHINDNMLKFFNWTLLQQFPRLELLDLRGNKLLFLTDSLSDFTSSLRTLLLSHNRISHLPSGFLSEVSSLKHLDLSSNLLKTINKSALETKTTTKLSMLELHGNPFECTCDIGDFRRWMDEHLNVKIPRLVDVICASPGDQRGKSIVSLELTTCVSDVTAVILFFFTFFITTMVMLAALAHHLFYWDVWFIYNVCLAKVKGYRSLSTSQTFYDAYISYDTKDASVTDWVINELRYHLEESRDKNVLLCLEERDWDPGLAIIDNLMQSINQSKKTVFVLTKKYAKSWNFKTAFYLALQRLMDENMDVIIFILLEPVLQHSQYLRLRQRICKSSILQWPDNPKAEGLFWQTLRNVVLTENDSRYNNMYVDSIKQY
Kind of assay: TLR8 inhibition reporter assay (HEK-Blue SEAP). Conditions: cells overexpressing human TLR8, SEAP reporter, stimulated with R848 15.9 μM, 22 hour incubation. The protocol:
as §1, §2

SMILES strings stand for the structures.

On to `Cc1cc(-c2[nH]c3cnc(C4CCN(C5COC5)CC4)nc3c2C(C)C)cn(C)c1=O` [Example 8, 5-(7-isopropyl-2-(1-(oxetan-3-yl)piperidin-4-yl)-5H-pyrrolo[3,2-d]pyrimidin-6-yl)-1,3-dimethylpyridin-2(1H)-one], for which the IC50 against human TLR7 is less than 0.1 µM; against human TLR9, 1 to 50 µM; against human TLR8, less than 0.1 µM.
Regarding `CCc1c(-c2ccc(OC)c(OC)c2)[nH]c2cnc(-c3nnc(C[C@@H]4CCCCN4)o3)nc12` [Example 46, (S)-2-(6-(3,4-dimethoxyphenyl)-7-ethyl-5H-pyrrolo[3,2-d]pyrimidin-2-yl)-5-(piperidin-2-ylmethyl)-1,3,4-oxadiazole], the IC50 at human TLR7 lay within 1 to 50 µM; at human TLR9, 1 to 50 µM; at human TLR8, 0.1 to 1 µM.
Consider `CCc1c(-c2ccc(OC)c(OC)c2)[nH]c2cnc(C(=O)NC3CCN(C(C)C)CC3)nc12` [Example 56, 6-(3,4-diunethoxyphenyl)-7-ethyl-N-(1-isopropylpiperidin-4-yl)-5H-pyrrolo[3,2-d]pyrimidine-2-carboxamide], for which the IC50 at human TLR7 was 1 to 50 µM; on human TLR9, greater than 50 µM; against human TLR8 it was 1 to 50 µM.
Regarding `CCc1c(-c2ccc(OC)c(OC)c2)[nH]c2cnc(-c3nnc([C@@H]4CCCNC4)o3)nc12` [Example 43, (R)-2-(6-(3,4-dimethoxyphenyl)-7-ethyl-5H-pyrrolo[3,2-d]pyrimidin-2-yl)-5-(piperidin-3-yl)-1,3,4-oxadiazole], the IC50 was 1 to 50 µM against human TLR7, 1 to 50 µM on human TLR9 and 0.1 to 1 µM against human TLR8.
Take `CCc1c(-c2ccc(OC)c(OC)c2)[nH]c2cnc(C3CCN(CC(=O)NC)CC3)nc12` [Example 50]: the IC50 at human TLR7 fell in the range of 0.1 to 1 µM; on human TLR9, 1 to 50 µM; on human TLR8, 0.1 to 1 µM.
Regarding `CCc1c(-c2ccnc3[nH]ncc23)[nH]c2cnc(C3CCN(C4CCN(C(C)C)CC4)CC3)nc12` [Example 25, 4-(7-ethyl-2-(1′-isopropyl-[1,4′-bipiperidin]-4-yl)-5H-pyrrolo[3,2-d]pyrimidin-6-yl)-1H-pyrazolo[3,4-b]pyridine], the IC50 on human TLR7, at human TLR9 and at human TLR8 was 0.1 to 1 µM in each case.
On to `COc1cc(-c2[nH]c3cnc(C4CCN(C5COC5)CC4)nc3c2C(C)C)cn2ncnc12` [Example 14, 6-(7-isopropyl-2-(1-(oxetan-3-yl)piperidin-4-yl)-5H-pyrrolo[3,2-d]pyrimidin-6-yl)-8-methoxy-[1,2,4]triazolo[1,5-a]pyridine], for which the IC50 against human TLR7 was less than 0.1 µM; against human TLR9, 1 to 50 µM; on human TLR8, less than 0.1 µM.
As for `Cc1c(-c2[nH]c3cnc(C4CCN(CC(C)(C)O)CC4)nc3c2C(C)C)cn2ncnc2c1C` [Example 27, 1-(4-(6-(7,8-dimethyl-[1,2,4]triazolo[1,5-a]pyridin-6-yl)-7-isopropyl-5H-pyrrolo[3,2-d]pyrimidin-2-yl)piperidin-1-yl)-2-methylpropan-2-ol], the IC50 at human TLR7 is less than 0.1 µM; against human TLR9, 1 to 50 µM; against human TLR8, less than 0.1 µM.
For the compound `CCc1c(-c2ccc(OC)c(OC)c2)[nH]c2ncc(C3CCN(C(=O)CN(C)C)CC3)nc12` [Example 4, 1-(4-(6-(3,4-dimethoxypbenyl)-7-ethyl-5H-pyrrolo[2,3-b]pyrazin-2-yl)piperidin-1-yl)-2-(dimethylamino)ethanone], the IC50 against human TLR7 is 0.1 to 1 µM; on human TLR9 it was 1 to 50 µM; against human TLR8 it was 0.1 to 1 µM.
Regarding `CCc1c(-c2ccnc(C)c2)[nH]c2cnc(C3CCN(C4CCN(C(C)C)CC4)CC3)nc12` [Example 23, 7-ethyl-2-(1′-isopropyl-[1,4′-bipiperidin]-4-yl)-6-(2-methylpyridin-4-yl)-5H-pyrrolo[3,2-d]pyrimidine], the values for the IC50 on human TLR7, on human TLR9 and on human TLR8 were 0.1 to 1 µM, 0.1 to 1 µM and less than 0.1 µM, respectively.
For the compound `COc1cc(-c2[nH]c3cnc(C4CCN(CC(C)(C)O)CC4)nc3c2C(C)C)cn2ncnc12` [Example 15, 1-(4-(7-isopropyl-6-(8-methoxy-[1,2,4]triazolo[1,5-a]pyridin-6-yl)-5H-pyrrolo[3,2-d]pyrimidin-2-yl)piperidin-1-yl)-2-methylpropan-2-ol], the values for the IC50 on human TLR7, on human TLR9 and on human TLR8 were less than 0.1 µM, 1 to 50 µM and less than 0.1 µM, respectively.
